Assay results reported in patent US8697739B2, “Bicyclic acetyl-CoA carboxylase inhibitors and uses thereof” (Novartis AG, priority 2010, dated 2014).

Assays:
[1] = test system: HCVcc genotype 2a (JFH-1 strain) virus; experiment: HCV assay: JFH-1 rLuc infection of Huh 7.5 cells, renilla luciferase readout; format: cell-based; conditions: Hepatitis C virus, Huh7.5; JFH-1 rLuc virus, MOI=0.01, Huh 7.5 cells, 72 hours, luciferase activity reduced by 50%
Description: (§1) The effect of compounds on HCV infection was determined in vitro using cell cultured (HCVcc) genotype 2a (JFH-1 strain) virus. A renilla luciferase reporter gene was inserted in the viral genome, the expression of which was under the control of HCV 5′UTR (JFH-1^rLuc). Thus, the inhibition of HCV infection or replication can be indirectly measured by the reduction of luciferase activity in the cells. A specifically adapted hepatoma cell line, Huh 7.5, which allowed higher infectivity of HCV in vitro, was cultured in Dulbecco's modified Eagle's medium (DMEM) supplemented with 2 mM L-glutamine, 0.1 mM non-essential amino acids and 10% heat-inactivated fetal bovine serum. The cells were infected with JFH-1^rLuc virus at an MOI=0.01 and were treated at the same time with serially diluted compounds. After 72 hours, luciferase activities in compound-treated cells were measured using the Renilla Luciferase Assay System (Promega) and were compared to those in untreated control cells. Concentration-dependent inhibition curves were generated, from which EC50 values, the concentrations of compounds at which luciferase activities were reduced by 50% relative to untreated control, were calculated. In parallel, cytotoxicity of compounds was determine by measuring the viability of compound-treated cells using CellTiter 96® AQueous One Solution Cell Proliferation Assay (Promega). CC50 represented the concentration of the compound at which cell viability was reduced by 50% compared to untreated control.

in vitro = format: cell-based; conditions: human
Description: as §1

[2] = target: T1, human acetyl-CoA carboxylase 2 (ACC2) (Homo sapiens, UniProt O00763); experiment: Acetyl-CoA carboxylase enzyme assay (malonyl-CoA formation by LC/MS/MS); format: biochemical; conditions: recombinant human ACC2 (aa 144-2458); read-out: IC50 ACC2
T1 construct: The cDNA encoding amino acids 144 to 2458 of human acetyl-CoA carboxylase 2; made in house; host or cells: Sf9 insect cells (baculovirus, pFastBac1)
T1 sequence (O00763 144-2458): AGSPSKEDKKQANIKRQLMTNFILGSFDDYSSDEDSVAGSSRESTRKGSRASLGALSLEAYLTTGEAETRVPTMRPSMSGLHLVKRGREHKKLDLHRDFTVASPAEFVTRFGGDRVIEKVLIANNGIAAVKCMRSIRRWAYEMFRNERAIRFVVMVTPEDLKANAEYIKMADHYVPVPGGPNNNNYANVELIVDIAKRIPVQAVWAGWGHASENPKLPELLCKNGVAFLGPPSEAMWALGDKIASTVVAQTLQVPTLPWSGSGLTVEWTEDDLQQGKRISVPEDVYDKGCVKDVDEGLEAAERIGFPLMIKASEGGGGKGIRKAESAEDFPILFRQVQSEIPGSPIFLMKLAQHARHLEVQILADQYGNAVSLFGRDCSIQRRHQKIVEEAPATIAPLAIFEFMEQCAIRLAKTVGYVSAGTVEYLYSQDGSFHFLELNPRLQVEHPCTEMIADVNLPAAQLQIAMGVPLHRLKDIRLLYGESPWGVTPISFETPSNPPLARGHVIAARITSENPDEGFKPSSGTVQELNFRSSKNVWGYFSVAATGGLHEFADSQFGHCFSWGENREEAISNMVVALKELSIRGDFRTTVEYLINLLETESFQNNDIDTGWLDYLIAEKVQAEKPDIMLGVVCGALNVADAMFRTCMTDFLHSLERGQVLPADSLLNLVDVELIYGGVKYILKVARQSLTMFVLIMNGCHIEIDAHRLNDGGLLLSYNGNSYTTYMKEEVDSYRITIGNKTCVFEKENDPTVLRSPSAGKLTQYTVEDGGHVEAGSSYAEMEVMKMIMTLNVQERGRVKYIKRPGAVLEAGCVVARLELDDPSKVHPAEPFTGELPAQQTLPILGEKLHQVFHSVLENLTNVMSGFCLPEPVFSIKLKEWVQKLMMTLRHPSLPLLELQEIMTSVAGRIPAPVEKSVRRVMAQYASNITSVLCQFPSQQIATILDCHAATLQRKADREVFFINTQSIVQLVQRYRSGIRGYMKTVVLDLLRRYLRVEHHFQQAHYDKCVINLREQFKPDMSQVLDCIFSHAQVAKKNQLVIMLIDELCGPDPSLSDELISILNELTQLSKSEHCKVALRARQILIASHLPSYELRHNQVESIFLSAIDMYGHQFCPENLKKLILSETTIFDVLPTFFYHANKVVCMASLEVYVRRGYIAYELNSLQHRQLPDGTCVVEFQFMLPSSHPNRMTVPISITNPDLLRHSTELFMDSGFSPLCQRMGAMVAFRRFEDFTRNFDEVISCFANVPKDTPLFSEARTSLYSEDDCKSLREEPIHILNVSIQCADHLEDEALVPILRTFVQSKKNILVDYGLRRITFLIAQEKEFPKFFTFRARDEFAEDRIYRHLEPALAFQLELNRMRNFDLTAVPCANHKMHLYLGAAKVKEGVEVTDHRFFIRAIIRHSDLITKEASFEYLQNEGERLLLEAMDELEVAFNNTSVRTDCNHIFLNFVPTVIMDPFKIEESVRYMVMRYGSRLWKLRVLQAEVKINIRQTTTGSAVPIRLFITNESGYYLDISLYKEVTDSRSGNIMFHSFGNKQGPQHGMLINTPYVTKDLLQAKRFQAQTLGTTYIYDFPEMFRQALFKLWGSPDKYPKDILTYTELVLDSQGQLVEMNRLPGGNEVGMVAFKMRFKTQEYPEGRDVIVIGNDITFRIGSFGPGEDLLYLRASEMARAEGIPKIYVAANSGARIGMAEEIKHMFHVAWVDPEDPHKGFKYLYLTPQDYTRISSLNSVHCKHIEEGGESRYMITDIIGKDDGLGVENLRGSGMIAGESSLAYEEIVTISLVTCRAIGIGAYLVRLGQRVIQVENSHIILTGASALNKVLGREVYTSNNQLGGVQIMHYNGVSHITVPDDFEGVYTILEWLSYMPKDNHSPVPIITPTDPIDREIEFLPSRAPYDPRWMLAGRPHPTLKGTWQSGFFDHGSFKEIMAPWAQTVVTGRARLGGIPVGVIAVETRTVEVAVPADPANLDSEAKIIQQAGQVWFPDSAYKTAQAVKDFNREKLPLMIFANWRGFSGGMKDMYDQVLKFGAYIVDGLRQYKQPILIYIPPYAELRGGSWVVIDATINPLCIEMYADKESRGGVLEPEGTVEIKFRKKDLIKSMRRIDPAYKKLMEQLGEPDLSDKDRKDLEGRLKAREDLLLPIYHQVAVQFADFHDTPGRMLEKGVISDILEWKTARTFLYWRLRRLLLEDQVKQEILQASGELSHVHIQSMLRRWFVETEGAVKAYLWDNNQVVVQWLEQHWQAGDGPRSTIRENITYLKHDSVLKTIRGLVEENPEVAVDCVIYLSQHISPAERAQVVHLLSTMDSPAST
Outline: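 Malonyl-CoA formation was read by LC/MS/MS MRM against a [13C3]-malonyl-CoA internal standard, after acetic acid quench. The enzyme was baculovirus/Sf9-expressed human ACC2 residues 144–2458, given 15 minutes room-temperature compound preincubation in HEPES pH 7.5 buffer with MgCl2, citrate and DTT. Substrate solution held 50 μM acetyl-CoA, 120 μM ATP and 2 mM KHCO3.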

| Compound | EC50 [1] [nM] | CC50 at 72 h (in vitro) [nM] | IC50 [2] [nM] |
| --- | --- | --- | --- |
| CC(C)[C@H]1COCCN1C(=O)[C@H]1CC[C@H](NS(=O)(=O)c2ccc3c(Cl)c(-c4ccc(CCC(=O)O)cc4)n(C)c3c2)CC1 [Example 25, 3-(4-(3-chloro-6-(N-((1S,4r)-4-((S)-3-isopropylmorpholine-4-carbonyl)cyclohexyl)sulfamoyl)-1-methyl-H-indol-2-yl)phenyl)propanoic acid] | 680 | > 33000 | < 10 |
| Cn1c(-c2ccc(CCC(=O)O)cc2)c(Cl)c2ccc(S(=O)(=O)N[C@H]3CC[C@H](C(=O)N4CCOC[C@@H]4C4CC4)CC3)cc21 [Example 28, 3-(4-(3-chloro-6-(N-((1S,4r)-4-((S)-3-cyclopropylmorpholine-4-carbonyl)cyclohexyl)sulfamoyl)-1-methyl-1H-indol-2-yl)phenyl)propanoic acid] | 510 | > 33000 | < 10 |
| CC(C)[C@H]1COCCN1C(=O)[C@H]1CC[C@H](NS(=O)(=O)c2ccc3cc(-c4ccc(CCC(=O)O)cc4)n(C)c3c2)CC1 [Example 29, 3-(4-(6-(N-((1S,4r)-4-((S)-3-isopropylmorpholine-4-carbonyl)cyclohexyl)sulfamoyl)-1-methyl-1H-indol-2-yl)phenyl)propanoic acid] | 2420 | > 33000 | < 10 |
| COCCc1ccc(-c2cc3ccc(S(=O)(=O)N[C@H]4CC[C@H](C(=O)N5CCOC[C@@H]5C)CC4)cc3[nH]2)cc1 [Example 30, 2-(4-(2-methoxyethyl)phenyl)-N-((1S,4r)-4-((S)-3-methylmorpholine-4-carbonyl)cyclohexyl)-1H-indole-6-sulfonamide] | 710 | > 33000 | 10 |
| COCCc1ccc(-c2[nH]c3cc(S(=O)(=O)N[C@H]4CC[C@H](C(=O)N5CCOC[C@@H]5C)CC4)ccc3c2Cl)cc1 [Example 31, 3-chloro-2-(4-(2-methoxyethyl)phenyl)-N-((1S,4r)-4-((S)-3-methylmorpholine-4-carbonyl)cyclohexyl)-1H-indole-6-sulfonamide] | 140 | 24000 | < 10 |
| C[C@@H](NC(=O)[C@H]1CC[C@H](NS(=O)(=O)c2cnc3c(c2)N(C(=O)OCCOCc2ccccc2)CCN3)CC1)c1ccc(F)cc1 [Example 208, 2-(benzyloxy)ethyl 7-(N-((1R,4r)-4-((R)-1-(4-fluorophenyl)ethylcarbamoyl)cyclohexyl)sulfamoyl)-3,4-dihydropyrido[3,2-b]pyrazine-1(2H)-carboxylate] | 4740 | > 16700 | 595 |
| CCOc1ccc2cc(S(=O)(=O)N[C@H]3CC[C@H](C(=O)N[C@H](COC(=O)[C@@H](NC)C(C)C)c4ccccc4)CC3)ccc2n1 [Example 272, (S)-((S)-2-((1r,4S)-4-(2-ethoxyquinoline-6-sulfonamido)cyclohexanecarboxamido)-2-phenylethyl) 3-methyl-2-(methylamino)butanoate] | 14100 | > 16700 | 175 |
| Cn1c(-c2ccccc2)cc2ccc(S(=O)(=O)N[C@H]3CC[C@H](C(=O)N4CCN(c5ncccn5)CC4)CC3)cc21 [Example 431, 1-methyl-2-phenyl-N-((1r,4r)-4-(4-(pyrimidin-2-yl)piperazine-1-carbonyl)cyclohexyl)-1H-indole-6-sulfonamide] | 2230 | > 33000 | 130 |
| Cn1c(C2CC2)cc2ccc(S(=O)(=O)N[C@H]3CC[C@H](C(=O)N4CCOC[C@@H]4C4CC4)CC3)cc21 [Example 458, 2-cyclopropyl-N-((1S,4r)-4-((S)-3-cyclopropylmorpholine-4-carbonyl)cyclohexyl)-1-methyl-1H-indole-6-sulfonamide] | 240 | > 33000 | 35 |
| Cn1c(C2CC2)cc2ccc(S(=O)(=O)N[C@H]3CC[C@H](C(=O)NC(C4CC4)C4CC4)CC3)cc21 [Example 459, (1r,4r)-4-(2-cyclopropyl-1-methyl-1H-indole-6-sulfonamido)-N-(dicyclopropylmethyl)cyclohexanecarboxamide] | 210 | 26000 | 630 |
| COC(=O)CCc1ccc(-c2cc3ccc(S(=O)(=O)N[C@H]4CC[C@H](C(=O)N5CCOC[C@@H]5C5CC5)CC4)cc3n2C)cc1 [Example 473, methyl 3-(4-(6-(N-((1S,4r)-4-((S)-3-cyclopropylmorpholine-4-carbonyl)cyclohexyl)sulfamoyl)-1-methyl-1H-indol-2-yl)phenyl)propanoate] | 200 | > 33000 | < 10 |
| O=C([C@H]1CC[C@H](NS(=O)(=O)c2ccc3c(Cl)c(-c4ccccc4)[nH]c3c2)CC1)N1CCOC[C@@H]1C1CC1 [Example 474, 3-chloro-N-((1S,4r)-4-((S)-3-cyclopropylmorpholine-4-carbonyl)cyclohexyl)-2-phenyl-1H-indole-6-sulfonamide] | 29 | > 67000 | < 10 |
| C[C@@H]1CN(C(=O)[C@H]2CC[C@H](NS(=O)(=O)c3ccc4c(Cl)c(-c5ccccc5)[nH]c4c3)CC2)C[C@H](C)O1 [Example 477, 3-chloro-N-((1R,4r)-4-((2S,6R)-2,6-dimethylmorpholine-4-carbonyl)cyclohexyl)-2-phenyl-1H-indole-6-sulfonamide] | 40 | 12000 | < 10 |
| Cn1c(-c2ccccc2)cc2ccc(S(=O)(=O)N[C@H]3CC[C@H](C(=O)N4CCOC[C@@H]4C4CC4)CC3)cc21 [Example 479, N-((1S,4r)-4-((S)-3-cyclopropylmorpholine-4-carbonyl)cyclohexyl)-1-methyl-2-phenyl-1H-indole-6-sulfonamide] | 1270 | > 33000 | 10 |
| C[C@@H](NC(=O)[C@H]1CC[C@H](NS(=O)(=O)c2ccc3ccccc3c2)CC1)c1ccc(F)cc1 [Example 677, (1r,4R)-N-((R)-1-(4-fluorophenyl)ethyl)-4-(naphthalene-2-sulfonamido)cyclohexanecarboxamide] | – | – | 10 |
| C[C@@H](NC(=O)[C@H]1CC[C@H](NS(=O)(=O)c2cccc3ccccc23)CC1)c1ccc(F)cc1 [Example 678, (1r,4R)-N-((R)-1-(4-fluorophenyl)ethyl)-4-(naphthalene-1-sulfonamido)cyclohexanecarboxamide] | – | – | 433 |
| COCC[C@@H](NC(=O)[C@H]1CC[C@H](NS(=O)(=O)c2ccc3c(ccn3C)c2)CC1)c1ccccc1 [Example 679, (1r,4R)-N-((R)-3-methoxy-1-phenylpropyl)-4-(1-methyl-1H-indole-5-sulfonamido)cyclohexanecarboxamide] | – | – | 110 |
| CC(NC(=O)[C@H]1CC[C@H](NS(=O)(=O)c2ccc3ccccc3c2)CC1)c1cccnc1 (stereo partly shown) [Example 680, (1r,4r)-4-(naphthalene-2-sulfonamido)-N-(1-(pyridin-3-yl)ethyl)cyclohexanecarboxamide] | – | – | 240 |
| CC(NC(=O)[C@H]1CC[C@H](NS(=O)(=O)c2ccc3cc(Cl)ccc3c2)CC1)c1cccnc1 (stereo partly shown) [Example 681, (1r,4r)-4-(6-chloronaphthalene-2-sulfonamido)-N-(1-(pyridin-3-yl)ethyl)cyclohexanecarboxamide] | – | – | 142 |
| C[C@@H](NC(=O)[C@H]1CC[C@H](NS(=O)(=O)c2ccc3ccccc3c2)CC1)c1cccnc1 [Example 682, (1r,4R)-4-(naphthalene-2-sulfonamido)-N-((R)-1-(pyridin-3-yl)ethyl)cyclohexanecarboxamide] | – | – | 144 |
| C[C@H](NC(=O)[C@H]1CC[C@H](NS(=O)(=O)c2ccc3ccccc3c2)CC1)c1cccnc1 [Example 683, (1r,4S)-4-(naphthalene-2-sulfonamido)-N-((S)-1-(pyridin-3-yl)ethyl)cyclohexanecarboxamide] | – | – | > 35000 |
| C[C@@H](NC(=O)[C@H]1CC[C@H](NS(=O)(=O)c2ccc3cc(Cl)ccc3c2)CC1)c1cccnc1 [Example 684, (1r,4R)-4-(6-chloronaphthalene-2-sulfonamido)-N-((R)-1-(pyridin-3-yl)ethyl)cyclohexanecarboxamide] | – | – | 180 |
| O=S(=O)(N[C@H]1CC[C@H](c2nnc(C3CCCCC3)o2)CC1)c1ccc2c(c1)CNCC2 [Example 685, N-((1r,4r)-4-(5-cyclohexyl-1,3,4-oxadiazol-2-yl)cyclohexyl)-1,2,3,4-tetrahydroisoquinoline-7-sulfonamide] | – | – | > 35000 |
| N-(4-(5-isopropyl-1,3,4-oxadiazol-2-yl)phenyl)-2-(4-morpholinophenyl)-1H-benzo[d]imidazole-5-sulfonamide [Example 591] | – | – | 1130 |
